Source: the Kinase Knowledgebase extract (Sharma et al. 2016)

Target: PIK3CG (human) (UniProt P48736)
Assay: Inhibition of PIK3CG Kinase Activity

Sequence of PIK3CG (human) (P48736 whole entry, looked up): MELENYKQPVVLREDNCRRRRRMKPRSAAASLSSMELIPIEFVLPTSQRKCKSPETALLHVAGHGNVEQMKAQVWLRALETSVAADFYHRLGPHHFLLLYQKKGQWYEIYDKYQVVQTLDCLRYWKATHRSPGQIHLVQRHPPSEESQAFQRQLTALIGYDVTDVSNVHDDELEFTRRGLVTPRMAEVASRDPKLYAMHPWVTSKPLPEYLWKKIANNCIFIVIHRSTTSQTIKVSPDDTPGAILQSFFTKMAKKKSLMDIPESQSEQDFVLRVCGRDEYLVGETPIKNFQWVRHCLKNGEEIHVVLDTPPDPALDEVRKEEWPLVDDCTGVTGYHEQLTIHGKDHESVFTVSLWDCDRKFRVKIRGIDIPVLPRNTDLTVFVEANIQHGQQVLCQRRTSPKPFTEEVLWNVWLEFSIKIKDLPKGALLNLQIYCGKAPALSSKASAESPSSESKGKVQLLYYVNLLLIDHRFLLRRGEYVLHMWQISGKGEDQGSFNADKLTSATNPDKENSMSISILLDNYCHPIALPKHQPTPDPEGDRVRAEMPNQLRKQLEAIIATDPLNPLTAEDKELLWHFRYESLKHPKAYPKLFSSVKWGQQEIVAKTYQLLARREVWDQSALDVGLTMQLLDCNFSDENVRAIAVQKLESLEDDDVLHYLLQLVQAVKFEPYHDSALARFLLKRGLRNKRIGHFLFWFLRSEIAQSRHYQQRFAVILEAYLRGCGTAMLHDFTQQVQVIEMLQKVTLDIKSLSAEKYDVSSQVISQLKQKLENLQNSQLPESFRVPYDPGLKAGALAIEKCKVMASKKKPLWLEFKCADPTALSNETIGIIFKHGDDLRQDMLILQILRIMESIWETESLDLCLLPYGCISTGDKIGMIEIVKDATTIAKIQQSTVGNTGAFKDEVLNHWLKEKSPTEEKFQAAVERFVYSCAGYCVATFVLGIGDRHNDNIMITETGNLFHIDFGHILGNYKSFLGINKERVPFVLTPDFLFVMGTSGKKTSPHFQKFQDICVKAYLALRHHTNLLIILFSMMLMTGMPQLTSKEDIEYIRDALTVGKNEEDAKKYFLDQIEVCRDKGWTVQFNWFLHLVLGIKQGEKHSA

| Compound | IC50 [µM] |
| --- | --- |
| Nc1nc2ccc(-c3cncnc3)cn2n1 | < 10 |
| Nc1nc2ccc(-c3cncc(S(=O)(=O)Nc4cccc(F)c4)c3)cn2n1 | < 10 |
| COc1ccc(-c2cc(Cl)c3nc(N)nn3c2)cc1OC | < 10 |
| Nc1nc2ccc(-c3cncc(S(=O)(=O)Nc4ccc(F)cc4)c3)cn2n1 | < 10 |
| CC(C)c1cccc(NS(=O)(=O)c2cncc(-c3ccc4nc(N)nn4c3)c2)c1 | < 10 |
| Nc1nc2ccc(-c3cncc(S(=O)(=O)Cc4ccccc4)c3)cn2n1 | < 10 |
| Nc1nc2ccc(-c3ccncc3)cn2n1 | < 10 |
| COc1ccc(-c2ccc3nc(N)nn3c2)cc1OC | < 10 |
| Nc1nc2ccc(-c3cncc(S(=O)(=O)NC4CCCC4)c3)cn2n1 | < 10 |
| Nc1nc2ccc(-c3cncc(S(=O)(=O)NCCN4CCNC4=O)c3)cn2n1 | < 10 |
| CC(C)(C)COc1cncc(-c2ccc3nc(N)nn3c2)c1 | < 10 |
| Nc1nc2ccc(-c3cccc(C(=O)O)c3)cn2n1 | < 10 |
| CCCNS(=O)(=O)c1cncc(-c2ccc3nc(N)nn3c2)c1 | < 10 |
| Nc1nc2ccc(-c3cncc(S(=O)(=O)NCc4cccc(Cl)c4Cl)c3)cn2n1 | < 10 |
| CCCCNS(=O)(=O)c1cncc(-c2ccc3nc(N)nn3c2)c1 | < 10 |
| CN(C)C(=O)CNS(=O)(=O)c1cncc(-c2ccc3nc(N)nn3c2)c1 | < 10 |
| COc1ccc(-c2ccc3nc(N)nn3c2)cc1O | < 10 |
| CN(C)CCCNS(=O)(=O)c1cccc(-c2ccc3nc(N)nn3c2)c1 | < 10 |
| NCCNS(=O)(=O)c1cccc(-c2ccc3nc(N)nn3c2)c1 | < 10 |
| Nc1nc2ccc(-c3cccc(C(F)(F)F)c3)cn2n1 | < 10 |

Other lines, results leading:

| IC50 [µM] | Compound |
| --- | --- |
| < 10 | Nc1nc2c(F)cc(-c3cncc(S(=O)(=O)N4CCC4)c3)cn2n1 |
| < 10 | Nc1nc2ccc(-c3cnc(N)c(C(F)(F)F)c3)cn2n1 |
| < 10 | CN(Cc1cccc(Cl)c1Cl)S(=O)(=O)c1cncc(-c2ccc3nc(N)nn3c2)c1 |
| < 10 | CC(C)COc1cncc(-c2ccc3nc(N)nn3c2)c1 |
| < 10 | NCCNS(=O)(=O)c1cncc(-c2ccc3nc(N)nn3c2)c1 |
| < 10 | CC(C)CCNS(=O)(=O)c1cncc(-c2ccc3nc(N)nn3c2)c1 |
| < 10 | CN(c1cccc(C(F)(F)F)c1)S(=O)(=O)c1cncc(-c2ccc3nc(N)nn3c2)c1 |
| < 10 | Nc1nc2ccc(-c3cncc(S(=O)(=O)NCc4ccc(F)cc4)c3)cn2n1 |
| < 10 | CCN(CC)S(=O)(=O)c1cncc(-c2ccc3nc(N)nn3c2)c1 |
| < 10 | Nc1nc2ccc(-c3cncc(NS(=O)(=O)c4ccc(C(F)(F)F)cc4)c3)cn2n1 |
| < 10 | Nc1nc2ccc(-c3cncc(S(=O)(=O)NC4CCCCC4)c3)cn2n1 |
| < 10 | Nc1nc2ccc(-c3cccc(S(=O)(=O)NCCO)c3)cn2n1 |
| < 10 | CN(C)S(=O)(=O)c1cncc(-c2ccc3nc(N)nn3c2)c1 |
| < 10 | COc1cccc(-c2ccc3nc(N)nn3c2)c1 |
| < 10 | Nc1nc2ccc(-c3cncc(OCc4ccccc4)c3)cn2n1 |
| < 10 | Nc1nc2ccc(-c3cccc(Cl)c3)cn2n1 |
| < 10 | CC(C)c1ccccc1NS(=O)(=O)c1cncc(-c2ccc3nc(N)nn3c2)c1 |
| < 10 | Nc1nc2ccc(-c3cncc(S(=O)(=O)Nc4cc(F)cc(F)c4)c3)cn2n1 |
| < 10 | Nc1nc2ccc(-c3cncc(S(=O)(=O)NCCCC(F)(F)F)c3)cn2n1 |
| < 10 | Nc1nc2ccc(-c3cncc(S(=O)(=O)Nc4ccc(OC(F)(F)F)cc4)c3)cn2n1 |
| < 10 | Nc1nc2ccc(-c3cncc(S(=O)(=O)N4Cc5ccccc5C4)c3)cn2n1 |
| < 10 | CS(=O)(=O)c1cncc(-c2ccc3nc(N)nn3c2)c1 |
| < 10 | COc1cc(-c2ccc3nc(N)nn3c2)ccc1OC(C)C |
| < 10 | COc1ccc(-c2cn3nc(N)nc3cc2C)cc1OC |
| < 10 | Nc1nc2ccc(-c3cccc(S(N)(=O)=O)c3)cn2n1 |
| < 10 | Nc1nc2ccc(-c3cncc(NS(=O)(=O)c4ccc5ccccc5c4)c3)cn2n1 |
| < 10 | Nc1nc2ccc(-c3cn[nH]c3)cn2n1 |
